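Assay format: 96-well plates, 48-hour exposure. Abbreviation: GI50, concentration required for 50% inhibition of growth.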 Activity calls are given as the source filed them. Rule as the data show it: active = GI50 up to about 1.1 µM and inactive = higher.

Test systems include NCI/ADR-RES; NCI-H522; HCC 2998; HCT-15; CAKI-1; A549; NCI-H460; OVCAR-8; DU-145; T47D; MDA-N; COLO 205; U-251; UACC-62; Hs-578T; NCI-H226; SK-OV-3; SNB-19; A498.
Holding throughout (test): inhibition of tumour cell growth, NCI panel, 48 h

`O=C1OC([C@H](O)c2cccnc2)c2ccccc21` (stereo partly specified): the GI50 in the test on NCI/ADR-RES was > 10 µM (inactive); in the test on NCI-H522, > 10 µM (inactive); in the test on HCC 2998, > 10 µM (inactive); in the test with HCT-15, above 10 µM; in the test with CAKI-1, > 10 µM (inactive); in the test on A549 it was > 10 µM (inactive). In addition, the GI50 in the test with NCI-H460, in the test on OVCAR-8, in the test with DU-145, in the test on T47D, in the test on MDA-N and in the test on COLO 205 was > 10 µM (inactive) throughout. Moreover, the GI50 in the test with U-251, in the test on UACC-62, in the test with Hs-578T, with NCI-H226, with SK-OV-3 and with SNB-19 was > 10 µM (inactive) in each case.
As for `COc1ccc(CC2C3=C(CCN2C(=O)C2CCC2)CC2(CC3)OCCO2)cc1O` (stereo unspecified), the GI50 in the test on NCI/ADR-RES is 16.3 µM (inactive); in the test on NCI-H522, 17.9 µM (inactive); in the test on HCC 2998, 28.2 µM (inactive); with HCT-15, 14.9 µM; with CAKI-1, 36.6 µM (inactive); in the test with A549, 40.9 µM (inactive). In addition, the GI50 in the test on NCI-H460 is 27.7 µM (inactive); in the test on OVCAR-8 it was 58.5 µM (inactive); with DU-145 it was 26.5 µM (inactive); in the test with T47D, 44.8 µM (inactive); in the test on MDA-N, 12.1 µM (inactive); in the test on COLO 205 it was 22.8 µM (inactive). Besides, the GI50 with U-251 was 39.9 µM (inactive); with UACC-62, 46.1 µM (inactive); in the test with Hs-578T it was 30.6 µM (inactive); in the test on A498, 26.7 µM (inactive); in the test on NCI-H226, 34.8 µM (inactive); in the test with SK-OV-3 it was 30.5 µM (inactive). The GI50 with SNB-19 was 45.6 µM (inactive).
For the molecule `CC1(C)N=c2[nH]cnc2=C(C(N)=O)N1`, the GI50 was > 100 µM (inactive) with NCI/ADR-RES; > 100 µM (inactive) in the test with NCI-H522; > 100 µM (inactive) in the test on HCC 2998; above 100 µM in the test with HCT-15; > 100 µM (inactive) in the test on CAKI-1; > 100 µM (inactive) in the test on A549. Besides, the GI50 with NCI-H460, in the test on OVCAR-8, with DU-145, with T47D, in the test with MDA-N and in the test on COLO 205 was > 100 µM (inactive) each time. Moreover, the GI50 in the test with U-251, with UACC-62, in the test with Hs-578T, in the test with A498, in the test on NCI-H226 and in the test with SK-OV-3 was > 100 µM (inactive) throughout. The GI50 in the test on SNB-19 was > 100 µM (inactive).
On to `O=c1c2c(nc3n1CCC3)sc1c(O)c(Br)ccc12`, for which the GI50 with NCI-H522 is 16 µM (inactive); in the test on HCC 2998 it was 17.1 µM (inactive); in the test on HCT-15, 18.6 µM; in the test on CAKI-1 it was > 100 µM (inactive); in the test with A549, 15.4 µM (inactive); with NCI-H460, 16.4 µM (inactive). The GI50 in the test with OVCAR-8 was 10.7 µM (inactive); in the test with COLO 205 it was 11.8 µM (inactive); in the test with U-251, 20.2 µM (inactive); in the test with UACC-62 it was 17.4 µM (inactive); in the test on A498, 10.5 µM (inactive); in the test with NCI-H226, 19.6 µM (inactive). In addition, the values for the GI50 in the test with SK-OV-3 and in the test with SNB-19 were 23.9 µM (inactive) and 54.7 µM (inactive), respectively.
On to `O=C(O)CCC1(Br)CCCCC(Br)C1=O` (stereo unspecified), for which the GI50 with NCI-H522 is > 100 µM (inactive); with HCC 2998 it was > 100 µM (inactive); in the test with HCT-15, above 100 µM; in the test on CAKI-1 it was > 100 µM (inactive); in the test on A549, > 100 µM (inactive); in the test on NCI-H460, > 100 µM (inactive). Further, the GI50 in the test on OVCAR-8, with COLO 205, in the test on U-251, with UACC-62, in the test on A498 and with NCI-H226 was > 100 µM (inactive) each time. Moreover, the GI50 with SK-OV-3 and in the test on SNB-19 was > 100 µM (inactive) throughout.
As to `C/C(=N/NC(=S)Nc1ccc(Cl)cc1)c1cccc(/C(C)=N\NC(=S)Nc2ccc(Cl)cc2)n1`, the GI50 in the test on NCI/ADR-RES is 2.59 µM (inactive); in the test on NCI-H522, 4.29 µM (inactive); with HCC 2998, 12.2 µM (inactive); in the test on HCT-15, 2.47 µM; in the test on CAKI-1, 3.72 µM (inactive); with A549, 5.55 µM (inactive). For the same molecule, the GI50 in the test on NCI-H460 was 3.49 µM (inactive); in the test with OVCAR-8, 1.85 µM (inactive); with DU-145 it was 26.1 µM (inactive); in the test with T47D, 30.7 µM (inactive); in the test on MDA-N, 17.1 µM (inactive); with COLO 205, 3.56 µM (inactive). Besides, the GI50 in the test with U-251 is 6.3 µM (inactive); in the test on UACC-62 it was 3.48 µM (inactive); in the test with A498, 20.4 µM (inactive); in the test with NCI-H226, 3.54 µM (inactive); in the test with SK-OV-3, 7.6 µM (inactive); in the test with SNB-19 it was 9.73 µM (inactive).
Regarding `CCOC1OCCCC1Br` (stereo unspecified), the GI50 was > 100 µM (inactive) in the test with NCI/ADR-RES; > 100 µM (inactive) in the test with NCI-H522; > 100 µM (inactive) in the test with HCC 2998; above 100 µM with HCT-15; > 100 µM (inactive) with CAKI-1; > 100 µM (inactive) with A549. In addition, the GI50 in the test with NCI-H460, in the test with OVCAR-8, with DU-145, with T47D, in the test on MDA-N and in the test with COLO 205 was > 100 µM (inactive) in each case. In addition, the GI50 in the test on UACC-62 is 72.1 µM (inactive); in the test on Hs-578T it was > 100 µM (inactive); with A498, > 100 µM (inactive); with NCI-H226 it was > 100 µM (inactive); in the test on SK-OV-3, > 100 µM (inactive); with SNB-19 it was > 100 µM (inactive).
On to `C/C(=N\NC(N)=O)c1sc(-c2nc(C)c(/C(C)=N/NC(N)=O)s2)nc1C`, for which the GI50 is 70.5 µM (inactive) with NCI-H522; > 100 µM (inactive) in the test with HCC 2998; 21.9 µM with HCT-15; > 100 µM (inactive) in the test on CAKI-1; > 100 µM (inactive) with A549; 78.7 µM (inactive) with NCI-H460. Also, the GI50 in the test on OVCAR-8 is > 100 µM (inactive); in the test with COLO 205, 53.6 µM (inactive); in the test with U-251 it was 99.3 µM (inactive); in the test on UACC-62, > 100 µM (inactive); in the test with A498, > 100 µM (inactive); in the test with NCI-H226, > 100 µM (inactive). For the same molecule, the GI50 in the test on SK-OV-3 and with SNB-19 was > 100 µM (inactive) each time.
On to `CN(C)c1ccc(C2CC(C)(O)Oc3cc4c(cc32)OCO4)cc1` (stereo unspecified), for which the GI50 was 35.2 µM (inactive) in the test on NCI/ADR-RES; 19.1 µM (inactive) in the test on NCI-H522; 32.4 µM (inactive) in the test with HCC 2998; 29.9 µM in the test with HCT-15; 66.2 µM (inactive) in the test with CAKI-1; 43.7 µM (inactive) with A549. Also, the GI50 is 40.9 µM (inactive) with NCI-H460; 29.5 µM (inactive) in the test with OVCAR-8; > 100 µM (inactive) with DU-145; 48.6 µM (inactive) in the test with T47D; 18.6 µM (inactive) in the test with MDA-N; 23.4 µM (inactive) with COLO 205. Besides, the GI50 in the test with U-251 is 43.8 µM (inactive); in the test with UACC-62, 21.6 µM (inactive); in the test on Hs-578T, 61 µM (inactive); in the test with NCI-H226, 3.86 µM (inactive); in the test with SK-OV-3, 48.8 µM (inactive); in the test with SNB-19, 98.9 µM (inactive).
For `CCN(CC)CC1CCCCN1CC(=O)N1c2ccc(Br)cc2C(=O)Nc2cccnc21` (stereo unspecified), the GI50 in the test with NCI-H522 was > 100 µM (inactive); with HCC 2998 it was > 100 µM (inactive); in the test on HCT-15 it was above 100 µM; in the test with CAKI-1, > 100 µM (inactive); with A549 it was > 100 µM (inactive); with NCI-H460, > 100 µM (inactive). In addition, the GI50 with OVCAR-8, with DU-145, in the test on T47D, in the test with MDA-N, with COLO 205 and in the test on U-251 was > 100 µM (inactive) throughout. Further, the GI50 in the test with UACC-62, with Hs-578T, in the test on A498, in the test on NCI-H226, with SK-OV-3 and with SNB-19 was > 100 µM (inactive) each time.
With `CCC(O)C1Cc2c(C)cc3c(c2O1)C(=O)c1ccccc1C3=O` (stereo unspecified), the GI50 is 21.1 µM (inactive) in the test with NCI-H522; 29.6 µM (inactive) in the test on HCC 2998; 19.6 µM in the test with HCT-15; 24.5 µM (inactive) in the test on CAKI-1; 36 µM (inactive) with A549; 27.3 µM (inactive) with NCI-H460. The GI50 in the test on OVCAR-8 is 32.4 µM (inactive); in the test on COLO 205, 16.1 µM (inactive); in the test with U-251, 26.2 µM (inactive); in the test with UACC-62 it was 28.8 µM (inactive); with A498, 18 µM (inactive); with NCI-H226, 46.8 µM (inactive). The GI50 in the test with SK-OV-3 is 22.6 µM (inactive); with SNB-19 it was 36.3 µM (inactive).
With `Cn1c(-c2ccc(-c3cc(-c4cccs4)c(-c4cccs4)n3C)cc2)cc(-c2cccs2)c1-c1cccs1`, the GI50 in the test with NCI/ADR-RES is > 100 µM (inactive); in the test on HCC 2998 it was > 100 µM (inactive); with HCT-15, above 100 µM; in the test on CAKI-1 it was > 100 µM (inactive); in the test on A549 it was > 100 µM (inactive); with NCI-H460, > 100 µM (inactive). For the same molecule, the GI50 in the test on OVCAR-8, with DU-145, in the test with T47D, in the test on MDA-N, in the test with COLO 205 and in the test with U-251 was > 100 µM (inactive) throughout. The GI50 in the test with UACC-62, in the test with Hs-578T, in the test with NCI-H226, in the test with SK-OV-3 and with SNB-19 was > 100 µM (inactive) in each case.

The values are drawn from ChEMBL document CHEMBL1201862, “PubChem BioAssay data set” (2004).
